Where two headings read alike, the source gives them in different places.
Target: T1, human full-length MKNK1 (Homo sapiens, UniProt Q9BUB5, T385D)
T1 construct: GST (N); purchased Carna Biosciences 02-145; host or cells: insect cells (baculovirus expression system)
Assay: MKNK1 kinase high ATP assay (TR-FRET)
Assay type: biochemical
Experimental: MKNK1 Kinase High ATP Assay
MKNK1-inhibitory activity at high ATP of compounds of the present invention after their preincubation with MKNK1 was quantified employing the TR-FRET-based MKNK1 high ATP assay as described in the following paragraphs.
As substrate for the kinase reaction the biotinylated peptide biotin-Ahx-[…] (C-terminus in amide form) was used, which can be purchased e.g. from the company Biosyntan (Berlin-Buch, Germany).
For the assay 50 nL of a 100 fold concentrated solution of the test compound in DMSO was pipetted into a black low volume 384 well microtiter plate (Greiner Bio-One, Frickenhausen, Germany), 2 μL of a solution of MKNK1 in aqueous assay buffer [50 mM HEPES pH 7.5, 5 mM MgCl2, 1.0 mM dithiothreitol, 0.005% (v/v) Nonidet-P40 (Sigma)] was added and the mixture was incubated for 15 min at 22° C. to allow pre-binding of the test compounds to the enzyme before the start of the kinase reaction. Then the kinase reaction was started by the addition of 3 μL of a solution of adenosine-tri-phosphate (ATP, 3.3 mM=>final conc. in the 5 μL assay volume is 2 mM) and substrate (0.1 μM=>final conc. in the 5 μL assay volume is 0.06 μM) in assay buffer and the resulting mixture was incubated for a reaction time of 30 min at 22° C. The concentration of MKNK1 was adjusted depending of the activity of the enzyme lot and was chosen appropriate to have the assay in the linear range, typical concentrations were in the range of 0.003 μg/mL. The reaction was stopped by the addition of 5 μL of a solution of TR-FRET detection reagents (5 nM streptavidine-XL665 [Cisbio Bioassays, Codolet, France] and 1 nM anti-ribosomal protein S6 (pSer236)-antibody from Invitrogen [#44921G] and 1 nM LANCE EU-W1024 labeled ProteinG [Perkin-Elmer, product no. AD0071]) in an aqueous EDTA-solution (100 mM EDTA, 0.1% (w/v) bovine serum albumin in 50 mM HEPES pH 7.5).
The resulting mixture was incubated for 1 h at 22° C. to allow the formation of complex between the phosphorylated biotinylated peptide and the detection reagents. Subsequently the amount of phosphorylated substrate was evaluated by measurement of the resonance energy transfer from the Eu-chelate to the streptavidine-XL. Therefore, the fluorescence emissions at 620 nm and 665 nm after excitation at 350 nm were measured in a TR-FRET reader, e.g. a Rubystar (BMG Labtechnologies, Offenburg, Germany) or a Viewlux (Perkin-Elmer). The ratio of the emissions at 665 nm and at 622 nm was taken as the measure for the amount of phosphorylated substrate.

[1] = Table 1, MKNK1 kinase high ATP assay, 2 mM ATP, read-out: MKNK1 IC50

T1 sequence (Q9BUB5 1-424 isoform Q9BUB5-2 T344D): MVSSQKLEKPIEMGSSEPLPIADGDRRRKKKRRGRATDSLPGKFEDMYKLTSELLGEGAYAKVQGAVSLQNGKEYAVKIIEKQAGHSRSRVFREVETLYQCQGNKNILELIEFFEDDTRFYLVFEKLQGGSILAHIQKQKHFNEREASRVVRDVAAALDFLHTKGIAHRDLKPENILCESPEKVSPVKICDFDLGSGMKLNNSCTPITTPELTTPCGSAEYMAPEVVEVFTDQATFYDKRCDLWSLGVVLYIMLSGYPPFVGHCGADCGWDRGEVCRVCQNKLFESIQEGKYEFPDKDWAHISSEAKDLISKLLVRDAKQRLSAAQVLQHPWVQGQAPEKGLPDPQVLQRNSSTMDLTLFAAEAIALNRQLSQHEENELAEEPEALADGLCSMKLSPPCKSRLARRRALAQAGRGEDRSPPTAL

Row | SMILES | IC50 [1] [pM] | other results
1 | COc1cc2[nH]ncc2cc1Nc1ncnc2sc3c(c12)CC[C@H](C(=O)N1CCN(C)CC1)C3 [Example 48, {(7S)-4-[(6-Methoxy-1H-indazol-5-yl)amino]-5,6,7,8-tetrahydro[1]benzothieno[2,3-d]pyrimidin-7-yl}(4-methylpiperazin-1-yl)methanone] | 400 | 
2 | COc1cc2[nH]ncc2cc1Nc1ncnc2sc3c(c12)CC[C@H](C(=O)N1CCN(C(=O)N(C)C)CC1)C3 [Example 49, 4-({(7S)-4-[(6-Methoxy-1H-indazol-5-yl)amino]-5,6,7,8-tetrahydro[1]benzothieno[2,3-d]pyrimidin-7-yl}carbonyl)-N,N-dimethylpiperazine-1-carboxamide] | 100 | 
3 | COc1cc2[nH]ncc2cc1Nc1ncnc2sc3c(c12)CC[C@H](C(=O)N1CCN(CCN(C)C)CC1)C3 [Example 50, {4-[2-(Dimethylamino)ethyl]piperazin-1-yl}{(7S)-4-[(6-methoxy-1H-indazol-5-yl)amino]-5,6,7,8-tetrahydro[1]benzothieno[2,3-d]pyrimidin-7-yl}methanone] | 100 | 
4 | COc1cc2[nH]ncc2cc1Nc1ncnc2sc3c(c12)CC[C@H](C(=O)N(C)CCN(C)C)C3 [Example 51, (7S)—N-[2-(Dimethylamino)ethyl]-4-[(6-methoxy-1H-indazol-5-yl)amino]-N-methyl-5,6,7,8-tetrahydro[1]benzothieno[2,3-d]pyrimidine-7-carboxamide] | 100 | 
5 | COc1cc2[nH]ncc2cc1Nc1ncnc2sc3c(c12)CC[C@H](C(=O)N(C)CC(=O)N(C)C)C3 [Example 52, (7S)—N-[2-(Dimethylamino)-2-oxoethyl]-4-[(6-methoxy-1H-indazol-5-yl)amino]-N-methyl-5,6,7,8-tetrahydro[1]benzothieno[2,3-d]pyrimidine-7-carboxamide] | 200 | 
6 | CCN(CCN(C)C)C(=O)[C@H]1CCc2c(sc3ncnc(Nc4cc5cn[nH]c5cc4OC)c23)C1 [Example 53, (7S)—N-[2-(Dimethylamino)ethyl]-N-ethyl-4-[(6-methoxy-1H-indazol-5-yl)amino]-5,6,7,8-tetrahydro[1]benzothieno[2,3-d]pyrimidine-7-carboxamide] | 300 | 
7 | COc1cc2[nH]ncc2cc1Nc1ncnc2sc3c(c12)CC[C@H](C(=O)N(C)CCCN(C)C)C3 [Example 54, (7S)—N-[3-(Dimethylamino)propyl]-4-[(6-methoxy-1H-indazol-5-yl)amino]-N-methyl-5,6,7,8-tetrahydro[1]benzothieno[2,3-d]pyrimidine-7-carboxamide] | 400 | 
8 | COc1cc2[nH]ncc2cc1Nc1ncnc2sc3c(c12)CC[C@H](C(=O)N(C)CCC(=O)N(C)C)C3 [Example 55, (7S)—N-[3-(Dimethylamino)-3-oxopropyl]-4-[(6-methoxy-1H-indazol-5-yl)amino]-N-methyl-5,6,7,8-tetrahydro[1]benzothieno[2,3-d]pyrimidine-7-carboxamide] | 100 | 
9 | COc1cc2[nH]ncc2cc1Nc1ncnc2sc3c(c12)CC[C@H](C(=O)N(CCC(=O)N(C)C)C1CC1)C3 [Example 56, (7S)—N-Cyclopropyl-N-[3-(dimethylamino)-3-oxopropyl]-4-[(6-methoxy-1H-indazol-5-yl)amino]-5,6,7,8-tetrahydro[1]benzothieno[2,3-d]pyrimidine-7-carboxamide] | 300 | 
10 | COc1cc2[nH]ncc2cc1Nc1ncnc2sc3c(c12)CC[C@H](C(=O)N(C)CCN(C)CCN(C)C)C3 [Example 57, (7S)—N-(2-{[2-(Dimethylamino)ethyl](methyl)amino}ethyl)-4-[(6-methoxy-1H-indazol-5-yl)amino]-N-methyl-5,6,7,8-tetrahydro[1]benzothieno[2,3-d]pyrimidine-7-carboxamide] | 700 | 
11 | COc1cc2[nH]ncc2cc1Nc1ncnc2sc3c(c12)CC[C@H](C(=O)N(CCO)CCCN(C)C)C3 [Example 58, (7S)—N-[3-(Dimethylamino)propyl]-N-(2-hydroxyethyl)-4-[(6-methoxy-1H-indazol-5-yl)amino]-5,6,7,8-tetrahydro[1]benzothieno[2,3-d]pyrimidine-7-carboxamide] | 300 | 
12 | COc1cc2[nH]ncc2cc1Nc1ncnc2sc3c(c12)CC[C@H](C(=O)N(CCCN(C)C)CCCN(C)C)C3 [Example 59, (7S)—N,N-bis[3-(Dimethylamino)propyl]-4-[(6-methoxy-1H-indazol-5-yl)amino]-5,6,7,8-tetrahydro[1]benzothieno[2,3-d]pyrimidine-7-carboxamide] | 200 | 
13 | COc1cc2[nH]ncc2cc1Nc1ncnc2sc3c(c12)CC[C@H](C(=O)N(CCN(C)C)Cc1ccccn1)C3 [Example 60, (7S)—N-[2-(Dimethylamino)ethyl]-4-[(6-methoxy-1H-indazol-5-yl)amino]-N-(pyridin-2-ylmethyl)-5,6,7,8-tetrahydro[1]benzothieno[2,3-d]pyrimidine-7-carboxamide] | 200 | 
14 | COc1cc2[nH]ncc2cc1Nc1ncnc2sc3c(c12)CC[C@H](C(=O)N(CCN(C)C)Cc1cccnc1)C3 [Example 61, (7S)—N-[2-(Dimethylamino)ethyl]-4-[(6-methoxy-1H-indazol-5-yl)amino]-N-(pyridin-3-ylmethyl)-5,6,7,8-tetrahydro[1]benzothieno[2,3-d]pyrimidine-7-carboxamide] | 100 | 
15 | COc1cc2[nH]ncc2cc1Nc1ncnc2sc3c(c12)CC[C@H](C(=O)N(CCN(C)C)Cc1ccncc1)C3 [Example 62, (7S)—N-[2-(Dimethylamino)ethyl]-4-[(6-methoxy-1H-indazol-5-yl)amino]-N-(pyridin-4-ylmethyl)-5,6,7,8-tetrahydro[1]benzothieno[2,3-d]pyrimidine-7-carboxamide] | 100 | 
16 | COc1cc2[nH]ncc2cc1Nc1ncnc2sc3c(c12)CC[C@H](C(=O)N(CCCN(C)C)Cc1ccccc1)C3 [Example 63, (7S)—N-Benzyl-N-[3-(dimethylamino)propyl]-4-[(6-methoxy-1H-indazol-5-yl)amino]-5,6,7,8-tetrahydro[1]benzothieno[2,3-d]pyrimidine-7-carboxamide] | 200 | 
17 | COc1cc2[nH]ncc2cc1Nc1ncnc2sc3c(c12)CC[C@H](C(=O)N1C(=O)O[C@H](c2ccccc2)[C@@H]1C)C3 [Example 64, (4S,5R)-3-({(7S)-4-[(6-Methoxy-1H-indazol-5-yl)amino]-5,6,7,8-tetrahydro[1]benzothieno[2,3-d]pyrimidin-7-yl}carbonyl)-4-methyl-5-phenyl-1,3-oxazolidin-2-one] | 10500 | 
18 | CCOc1cc2[nH]ncc2cc1Nc1ncnc2sc3c(c12)CC[C@H](C(=O)N(C)CC(F)F)C3 [Example 65, (7S)—N-(2,2-Difluoroethyl)-4-[(6-ethoxy-1H-indazol-5-yl)amino]-N-methyl-5,6,7,8-tetrahydro[1]benzothieno[2,3-d]pyrimidine-7-carboxamide] | 600 | 
19 | CCOc1cc2[nH]ncc2cc1Nc1ncnc2sc3c(c12)CC[C@H](C(=O)N(C)CCC(F)(F)F)C3 [Example 66, (7S)-4-[(6-Ethoxy-1H-indazol-5-yl)amino]-N-methyl-N-(3,3,3-trifluoropropyl)-5,6,7,8-tetrahydro[1]benzothieno[2,3-d]pyrimidine-7-carboxamide] | 400 | IC50 (Table 3, example numbers of WO2013/174744(A1), not of this patent, pure enantiomer from chiral HPLC, absolute configuration at amide 'R or S', read-out: MKNK1 IC50): 1700 pM; IC50 (Table 3, example numbers of WO2013/174744(A1), not of this patent, pure enantiomer from chiral HPLC, absolute configuration at amide 'S or R', read-out: MKNK1 IC50): 900 pM; Activity Ratio MKNK1 (Table 3, example numbers of WO2013/174744(A1), ratio of the IC50 values of the two enantiomers): 1.9
20 | CCOc1cc2[nH]ncc2cc1Nc1ncnc2sc3c(c12)CC[C@H](C(=O)N1CCCC1)C3 [Example 67, {(7S)-4-[(6-Ethoxy-1H-indazol-5-yl)amino]-5,6,7,8-tetrahydro[1]benzothieno[2,3-d]pyrimidin-7-yl}(pyrrolidin-1-yl)methanone] | 300 | 
21 | CCOc1cc2[nH]ncc2cc1Nc1ncnc2sc3c(c12)CC[C@H](C(=O)N1CCC(=O)CC1)C3 [Example 68, 1-({(7S)-4-[(6-Ethoxy-1H-indazol-5-yl)amino]-5,6,7,8-tetrahydro[1]benzothieno[2,3-d]pyrimidin-7-yl}carbonyl)piperidin-4-one] |  | IC50: 300 pM; Activity-Ratio MKNK1 (Table 2, ratio of the IC50-value of an R-enantiomer and its corresponding S-enantiomer): 9.0
